The text below walks through data of patent US20150316552A1, “Human Notch Receptor Mutations and Their Use” (OncoMed Pharmaceuticals, Inc., priority 2011, published 2015).

Entries after “also recorded” stand apart in the source; their conditions may differ. Square brackets hold non-standard residues; d marks the D form. Peptide text beside a SMILES is read from it. * marks the point of attachment. Nle = CCCC[C@H](N)C(=O)O; Cbz = O=C(OCc1ccccc1)*

The subject of test [1] is Ras-transformed fibroblasts. Conditions: cited from earlier work.
Test [2] concerns OMP-B40 breast tumors. Briefly: OMP-B40 breast tumor xenograft, tumor growth. Conditions: antibodies 15 mg/kg i.p. twice a week, Taxol 20 mg/kg i.p. once a week; FIG. 3B. The format is in vivo, NOD/SCID mice. The procedure:
B40 p3 tumor cells were injected subcutaneously into the left flank of 6-7 week old female NOD/SCID mice (300,000 cells/mouse). Mice were monitored weekly and tumors were allowed to grow until they were approximately 140 mm^3 (78 days after injection). Mice were randomized into five treatment groups and treated with control antibody, or different doses (0.3 mg/kg, 1 mg/kg, 3 mg/kg, 10 mg/kg) of the OMP-52M51 humanized anti-NOTCH1 antibody. The antibodies were dosed i.p. twice a week. Tumor growth was monitored by caliper measurement once a week.
Dissociated OMP-B40 p3 tumor cells were re-suspended in injection media (PBS containing 100 ng/mL VEGF and 100 ng/mL bFGF and 0.5× matrigel) and injected subcutaneously into the left flank of 6-7 week old female NOD/SCID mice (300,000 cells/mouse). Mice were monitored weekly and tumors were allowed to grow until they were approximately 140 mm^3 (78 days after injection). Mice were randomized into four treatment groups (n=10 mice/group) and treated with control antibody, anti-NOTCH1 antibody OMP-52M51, taxol or a combination of OMP-52M51 with taxol. The antibodies were dosed i.p. twice a week at 15 mg/kg and Taxol was dosed i.p. once a week at 20 mg/kg. Tumor growth was monitored by caliper measurement once a week.
As described in Example 2, three hundred thousand OMP-B40 tumor cells were injected subcutaneously and allowed to grow to a mean volume of […] At that point, 78 days after study start, mice were randomized and treatment started. Mice received either 15 mg/kg control antibody or 15 mg/kg OMP-52M51 humanized antibody twice weekly, with or without 20 mg/kg paclitaxel once weekly, all administered by IP injection. Mean±SEM, n=10 animals per group.

Test [3] deals with OMP-B37 breast tumors. Nature of the test: OMP-B37 breast tumor xenograft, tumor growth. The format is in vivo, NOD/SCID mice. The procedure:
Dissociated lineage depleted OMP-B37 p4 tumor cells were re-suspended in injection media (PBS and 0.5× matrigel) and injected subcutaneously into the right flank of 6-7 week old female NOD/SCID mice (27,000 cells/mouse). Mice were monitored weekly and tumors were allowed to grow until they were approximately 80 mm^3 (49 days after injection). Mice were randomized into two treatment groups (n=11 mice/group) and were dosed once a week with 15 mg/kg control antibody, or 20 mg/kg 59R5, an anti-NOTCH2/3 antibody (FIG. 5). Tumor growth was monitored by caliper measurement once a week.
(§1) Activity of anti-NOTCH2/3 in combination with Taxol in OMP-B37 breast tumor. The anti-NOTCH2/3 antibody 59R5, taxol, or a combination of 59R5 and taxol were administered to OMP-B37 xenograft mice. Initially, B37 p2 tumor cells were injected subcutaneously into the right flank of 6-7 week old female NOD/SCID mice. Mice were monitored weekly and tumors were allowed to grow until they were approximately 80 mm^3 Mice were then administered a control antibody, the 59R5 anti-NOTCH2/3 antibody, taxol or a combination of 59R5 anti-NOTCH2/3 antibody and taxol (FIG. 6). Tumor growth was monitored by caliper measurement once a week.

Test [4] concerns E-cadherin. Briefly: E-cadherin expression in treated OMP-B37 tumors. The format is in vivo, NOD/SCID mice. The following applies: OMP-B37 xenograft; FIG. 6B. As to the method:
as §1

The subject of test [5] is OMP-C31 colon tumor. Briefly: OMP-C31 colon tumor model, tumor growth. The format is in vivo, Nod-Scid mice. Conditions: 10 mg/kg IP weekly, p=0.0005; FIG. 15. As to the method: In order to test the effect of the 59R5 anti-NOTCH2/3 antibody on a tumor which harbors an activating mutation in NOTCH3, the OMP-C31 colon tumor model was utilized. 5,000 OMP-C31 colon tumor cells were injected sub-cutaneously in Nod-Scid mice. Dosing was initiated two days after tumor cell injection. Tumor bearing mice (n=10 group) were treated with either control antibody (1B7.11) or 59R5 anti-NOTCH2/3 antibody. Antibodies were dosed by IP injection at 10 mg/kg, weekly, for the duration of the experiment. Tumor volumes were measured on the indicated days. The data is plotted as the mean+SEM (FIG. 15).

In test [6] the test system is NOTCH3.ICD. Briefly: NOTCH3 ICD IHC of treated OMP-B37 breast tumors. The format is in vivo, mice. The following applies: OMP-B37 xenograft; FIG. 17; listed as OMP-59R5. As to the method: NOTCH3.ICD accumulation in OMP-B37 tumor cells comprising a NOTCH3 activating mutation following treatment with a NOTCH2/3 antagonist and/or chemotherapy was examined by IHC. Tumor samples were isolated from the OMP-B37 xenograft mice that were treated with OMP-59R5 anti-NOTCH2/3 antibody, taxol or a combination of OMP-59R5 and taxol as described in the second paragraph of Example 3 above. A NOTCH3 ICD (“N3.ICD”) rabbit monoclonal antibody was developed that binds to the cleavage site of NOTCH3 and detects activated NOTCH3 within the nucleus. NOTCH3 ICD IHC was performed on the tumor samples using the N3.ICD antibody and standard IHC protocols with antigen retrieval in Target Retrieval Solution pH 9 (DAKO), antibody incubation overnight at 4° C. and detection with peroxidase-based EnVision™+ polymer (DAKO) and DAB+ (DAKO). Statistical significance was determined by One Way ANOVA with Bonferroni adjustment.

Test [7] has as its system medulloblastoma. Conditions: cited from earlier work.
The test system of test [8] is T-ALL. Conditions: O'Neil et al. 2006; cited from earlier work.
The test system of test [9] is melanoma and Kaposi sarcoma. Conditions: Curry et al. 2005; cited from earlier work.

As for `CCC(C)C(NC(=O)OCc1ccccc1)C(=O)NC(C=O)CC(C)C` (stereo not drawn) [IL-X, cbz-IL-CHO] (Cbz-Ile-Leu-aldehyde; configuration not given here), the antineoplastic activity result in test [1] was “NOTCH1-dependent antineoplastic activity”.

For `CC(=O)O[C@H]1C(=O)[C@@]2(C)[C@H]([C@H](OC(=O)c3ccccc3)[C@]3(O)C[C@H](OC(=O)[C@H](O)[C@@H](NC(=O)c4ccccc4)c4ccccc4)C(C)=C1C3(C)C)[C@]1(OC(C)=O)CO[C@@H]1C[C@@H]2O` [Taxol, paclitaxel, reference compound], in [2], the “reduction in tumor volume versus control” value came out at 57.3%.

“59R5: anti-NOTCH2/3 antibody, ATCC PTA-10170; heavy chain variable region SEQ ID NO:30, light chain variable region SEQ ID NO:32”: the tumor volume reduction in test [3] (20 mg/kg once a week, after 5 weeks of treatment, FIG. 5) was 56.6%. For the same compound, the “tumor volume in xenografted animals (in words)” value in test [3] (59R5, taxol or combination study, FIG. 6A) is on record as “greatly decreased tumor volume”. Further, in test [3] (FIG. 5), the “tumor volume compared to control antibody (in words)” value is reported as “greatly decreased tumor volume”. Besides, the “expression of E-cadherin” value in [4] is given as “increases expression of E-cadherin”. In test [5], the “tumor growth relative to control antibody treated group” value was “inhibited OMP-C31 tumor growth”. For the same compound, the “NOTCH3.ICD accumulation relative to PBS treated cells” value in test [6] is given as “significantly inhibited NOTCH3.ICD accumulation; also recorded: blocks NOTCH3.ICD accumulation”.

With `C[C@H](NC(=O)Cc1cc(F)cc(F)c1)C(=O)N[C@H](C(=O)OC(C)(C)C)c1ccccc1` [DAPT, N—[N-(3,5-difluorophenacetyl)-L-alanyl]-S-phenylglycine t-butyl ester], in [7], the medulloblastoma growth entry is on record as “marked reduction in medulloblastoma growth”. The “cell cycle arrest and apoptosis” value in test [8] was “induced G0-G1 cell cycle arrest and apoptosis”.

`CCCC[C@@H](C=O)NC(=O)[C@H](CC(C)C)NC(=O)[C@H](CC(C)C)NC(=O)OCc1ccccc1` [z-Leu-leu-Nle-CHO] (Cbz-Leu-Leu-[Nle]-aldehyde): the tumor growth entry in [9] is reported as “suppress tumor growth”.
